Experiment [1] concerns skin samples derived from dorsal body hair skin transplanted in Balb/c nu/nu mice. As to the kind of experiment: Evaluation of hair growth activity: drug applied on skin samples from mouse dorsal body hair skin grafted onto Balb/c nu/nu mice. The class given is in vivo. The procedure: C57BL/6N mice (male) and Balb/c nu/nu mice (female) were purchased from Japan SLC, Inc.(Japan) and bred, and were thereafter made available for the following testing. Note that the testing and breeding of animals complied with pertinent laws, regulations, ordinances, and guidelines, and was performed with the approval of the Experimental Ethics Review Board of the Institute of Physical and Chemical Research.
The following reagents were respectively prepared. • Placebo: 60% aqueous ethanol solution • Working Example 1: 0.05% solution of palmitoyl dipeptide-5 diaminobutyloyl hydroxythreonine
To collect dorsal body hair skin in the form of anagen stage VI skin 12 to 14 days following depilation. C57BL/6N mice of age 7 to 8 weeks were depilated at locations where dorsal body hair skin was intended to be collected, and were bred for 12 to 14 days. The depilated C57BL/6N mice were thereafter euthanized by cervical dislocation, following which a suitable amount of dorsal body hair skin was collected from the locations at which dorsal body hair skin was intended to be collected.
The collected skin was immersed in DMEM culture medium (hereinafter “DMEM 10”) which contained 10 mM HEPES, 10% fetal bovine serum, and 1% penicillin/streptomycin solution. The collected dorsal body hair skin was grasped with bent-nose curved tweezers and was treated by immersion for 10 seconds in a sterilizing solution. Sterilization treatment was performed by carrying out treatment with 7% povidone iodine solution two times, treatment with PBS (−) three times, and treatment with DMEM 10 two times, in this order, with fresh solutions respectively being used each time. Following sterilization treatment, these were immersed in clean DMEM 10.
Following sterilization treatment, the dorsal body hair skin was cut into pieces and formed into blocks. The transparent connective tissue which adhered to the cutaneous muscle layer of the skin was excised therefrom using curved scissors, and hair groups were cut into rectangular strips in parallel fashion with respect to the direction of the wave of the hair. At this time, these were cut into blocks such that there were 6 rows of hair follicles along the long axis, adjustment having been carried out so that there were 5 rows of hair follicles along the short axis.
The skin samples derived from dorsal body hair skin that were prepared in accordance with the foregoing were grafted onto Balb/c nu/nu mice of age 4 to 6 weeks.
More specifically, mice were anesthetized in the usual way using isoflurane gas. The dorsal area of the mice was then disinfected using 7% povidone iodine solution, following which the mice were made to assume a naturally recumbent posture. In addition, a Mani ophthalmic knife (Mani, Inc.; Japan) was used to pierce the skin at the dorsal area of the mice, the grafts which were formed extending from the epidermal layer of the skin to the subdermal layer. The skin samples derived from dorsal body hair skin were inserted into the grafts formed thereat in such fashion as to cause the hair groups to be directed toward the body surface side of the grafts. Skin sample transplanted depth was adjusted so as to cause the top portion of the hair group to be in a state such that it was exposed at the top portion of the graft. To protect the grafts, Nurseban (registered trademark) (Sunplanet Co., Ltd.; Japan) and surgical tape (3M Japan Limited; Japan) were then used as protective tape to cover the grafts at which the skin samples derived from dorsal body hair skin had been transplanted. The protective tape was removed 5 to 7 days following transplantation, and survival of the transplanted skin samples derived from dorsal body hair skin was determined by visual inspection or digital microscopy (Keyence Corporation: Japan), after which follow-up observation was carried out.
For the first hair cycle, 60% aqueous ethanol solution was applied thereto as placebo. […]

The test system of experiment [2] is hair shafts (zigzag hairs) of skin samples transplanted in Balb/c nu/nu mice. As to the kind of experiment: Measurement of increase in hair diameter on hair shafts from Exemplary Test 1. The class given is in vivo. Here is the method:
Measurement of increase in hair diameter was carried out using hair shafts that had completed the second cycle at the foregoing Exemplary Test 1. Of the hair shafts that were collected, three zigzag hairs were used for measurement of increase in hair diameter. Three locations were selected in regions where diameter was large in the central portions thereof using a square […] on a side. For each of the selected regions, five different locations were further selected, and hair shaft diameter of the zigzag hairs thereat was measured to evaluate the degree to which increase in hair diameter had occurred.
Here, ** at FIG. 2 and TABLE 2 indicates p<0.01, i.e., that the results are significant.

The test system of experiment [3] is human dermal papilla cells. Kind of experiment: Dermal papilla cell growth promotion (Cell Count Reagent SF absorbance). The class given is cell-based. As to conditions: 10.268375 to 328.588 μM. Here is the method: Human dermal papilla cells (Catalog No. CA602t05a: derived from person: Toy obo Co., Ltd. (Japan)) were purchased, testing and evaluation being carried out with maintenance and culture of cells being performed as described in the protocol.
As drugs for testing, drug solutions consisting of culture medium for human dermal papilla cells containing palmitoyl dipeptide-5 diaminobutyloyl hydroxythreonine in the following respective concentrations (final concentrations) were prepared, and these were used. • Working Example 1: 10.268375 μM • Working Example 2: 20.53675 μM • Working Example 3: 41.0735 μM • Working Example 4: 82.147 μM • Working Example 5: 164.294 μM • Working Example 6: 328.588 μM
A 96-well plate was seeded with human dermal papilla cells so as to obtain 1×10^3 thereof per well. […] After this had been added thereto, absorbance (measurement wavelength 450 nm; reference wavelength 620 nm) of the culture supernatant was measured. Based on these values, the cell growth rates at the respective wells were calculated, at which time the cell growth rate of the control group at which nothing had been added was taken to be 100%.

For the next experiment, the system named is FGF-7 gene. Kind of experiment: FGF-7 gene expression in human dermal papilla cells by real-time PCR. As to conditions: 24 hours, FIG. 4. The class given is cell-based. Here is the method: Testing and evaluation were carried out with maintenance and culture of human dermal papilla cells being performed in the same manner as at Exemplary Test 3, above.
As drugs for testing, drug solutions of the following respective concentrations (final concentrations) were prepared and used. • Comparative Example 1: 100 μM adenosine • Working Example 1: 1 μM palmitoyl dipeptide-5 diaminobutyloyl hydroxythreonine • Working Example 2: 10 μM palmitoyl dipeptide-5 diaminobutyloyl hydroxythreonine • Working Example 3: 300 μM palmitoyl dipeptide-5 diaminobutyloyl hydroxythreonine
A 24-well plate was seeded with human dermal papilla cells so as to obtain 6×10^3 thereof per well. […]
Following culture, total RNA was extracted from the respective wells and was recovered, and this was reverse-transcribed into cDNA. […] The GAPDH gene was used as an internal standard, the amount of FGF-7 gene expression being calculated relative to the negative control group.
A FastGene RNA Basic Kit (Catalog No. FG-80250; Nippon Genetics Co., Ltd. (Japan)) was used to recover total RNA from cells. […] Concentration of the recovered RNA was measured using a NanoDrop Lite (Catalog No. ND-LITE; Thermo Fisher Scientific K.K.), and this was stored at −80° C. until the following cDNA creation procedure. […]
(Real-time PCR tracks product formation cycle by cycle.)

Setting [4] is: 0.05% solution applied topically to transplanted skin samples, second hair cycle.
Setting [5] is: 0.05% solution, second hair cycle vs placebo applied in first hair cycle.

For “palmitoyl dipeptide-5 diaminobutyloyl hydroxythreonine”, in experiment [1] (setting [4]), the “Hair shaft elongation rate” value came out at 0.40 ± 0.08 mm/day and the “Maximum hair shaft length” value worked out at 5.1 ± 0.3 mm. In experiment [1] (setting [5]), the “Hair shaft elongation rate, percent change relative to reference data” value was 110.45% and the “Maximum hair shaft length, percent change relative to reference data” value is given as 103.27%. Further, in experiment [1] (solution containing 0.05%), the “Hair growth activity (in words)” value was “exhibit hair growth activity”, the “Hair shaft elongation rate as compared with reference data (in words)” value is on record as “significant improvement” and the “Maximum hair shaft length as compared with reference data (in words)” value is “significant improvement”. Also, in experiment [2] (0.05% solution), the “Hair diameter as compared with 60% aqueous ethanol control (in words)” value is reported as “clear increase in hair diameter”. For the same substance, the “Hair shaft diameter, percent increase” value in experiment [2] (second hair cycle vs placebo applied in first hair cycle) was found to be 137%. The Hair shaft diameter in experiment [2] (zigzag hairs after second hair cycle, 0.05% solution, p<0.01) is 22.0 ± 1.6 ** μm. Also, the “Cell growth rate as compared with control group at which nothing had been added (in words)” value in experiment [3] (24, 48 or 72 hours, FIG. 3) was “increase in cell growth rate”. The “Concentration dependence of cell growth rate (in words)” value in experiment [3] (within concentration domain tested) is recorded as “increased in concentration-dependent fashion”. Moreover, the “Amount of expression of FGF-7 gene as compared with control group (in words)” value with FGF-7 gene (1 μM and 10 μM) is “increase in the amount of expression of the FGF-7 gene”. Further, the “Amount of expression of FGF-7 gene compared with 100 μM adenosine (in words)” value with FGF-7 gene (increased amount added) was “greater than that which was produced as a result of action of adenosine”.

For the origin of these results see US20230390356A1, “HAIR GROWTH AGENT” (ADJUVANT HOLDINGS CO., LTD., priority 2020, published 2023).
